The values below come from EP0009325A1, “Erythritol cointaining anti-caries compositions” (PFIZER INC., priority 1978, dated 1980).

Like-named read-outs stand apart in the source and are kept apart here.

Data set [1] concerns Streptococcus mutans strain GS-5. The experiment in a line: Growth of S. mutans GS-5 in nutrient medium (Klett optical density, doubling time, final pH). The format is cell-based. Conditions: 0.7% concentration; 37°C; columns 1-3 of Table I. The procedure: (§1) All compounds used in the test were in 0.7% concentration. The same concentrations were used to determine acid production in a salivary system. Streptococcus mutans strain GS-5, a human cariogenic strain, was used in all cases except the salivary test system in which the endogenous flora was used.
Klett tubes containing a tryticase-soy-yeast- cysteine nutrient and fitted with septum caps werg flushed with nitrogen gas and preincubated 30 minutes at 37°C using standard sterile technicuies, then in- noculated with a 2% innoculum of a suspension of S. mutans GS-5 cells in phosphate buffer. These were then incubated at 37°C. Optical density was measured by Klett readings (red filter) at half hour intervals.
The first three columns in the table refer to effects of the compounds on the growth characteristics of a cariogenic strain of the bacteria Streptococcus mutans. Reduction of total growth (lowered final Klett), reduction of growth rate (increase in doubling time) and reduction of acid produced (increase in final pH) are the effects desired.

For data set [2], the system named is dextran-sucrase (DSU). The experiment in a line: Dextran-sucrase (DSU) activity of S. mutans. The format is cell-based, Streptococcus mutans. Conditions: 0.7% concentration; for dextran-sucrase (DSU) activity: columns 4-8 of Table I.
From the text: as §1
The next six columns refer to certain effects on the metabolism of the bacteria. Columns 4-8 represent measures of the activity of an enzyme (or group of enzymes) called dextran-sucrase (DSU) which is one of the principle sources of the cariogenicity of this organism. DSU converts dietary sugar into polymers which are a major ingredient of cariogenic dental plaque. Such plaque is an accumulation of these polymers, playing an essential role in caries formation and periodontal disease. Therefore, a reduction in plaque formation by means of a reduction'in DSU activity is a desired effect. In particular, a reduction in "mean specific DSU activity" - that is, amount of activity per bacterial cell - is desired since that would imply a real effect on the organisms' metabolism instead of merely a reduction in the number of cells. […] Erythritol, however, is the best in the critical measure "DSU mean specific activity (column 8). In column 9, lactic acid production is measured. Lactic acid, produced by cariogenic bacteria in response to ingestion of a meal, can increase acidity enough to dissolve tooth mineral and initiate caries. Therefore, reduction in lactic acid production is desirable. […] Finally, in the last column (10) are measures of the effect on the pH of natural saliva. In this case, the natural mixed population of bacteria is used instead of a pure culture of one strain as in the previous columns. A positive number (pH increase, corresponding to reduced acidity) is the desired result.

The test system of data set [3] is Streptococcus mutans strain GS-5. Description: Lactic acid production (Sigma kit, NADH absorbance). Conditions: 0.7% concentration; relative to "no compound" control; column 9 of Table I. In kind it is cell-based. As for the experimental part:
as §1
Lactic acid production was measured using the Sigma Kit for determination of lactic acid. This procedure measures the amount of lactic acid by the following reaction: [drawing 1] NAD is originally present-in excess and the increase absorbance of […] due to NADH formation becomes a measure of lactic acid originally present.
The next six columns refer to certain effects on the metabolism of the bacteria. Columns 4-8 represent measures of the activity of an enzyme (or group of enzymes) called dextran-sucrase (DSU) which is one of the principle sources of the cariogenicity of this organism. DSU converts dietary sugar into polymers which are a major ingredient of cariogenic dental plaque. Such plaque is an accumulation of these polymers, playing an essential role in caries formation and periodontal disease. Therefore, a reduction in plaque formation by means of a reduction'in DSU activity is a desired effect. […] In column 9, lactic acid production is measured. […]

Data set [4] has as its system endogenous flora. Description: Salivary test system: pH change of pooled saliva. In kind it is cell-based, human saliva. Conditions: final concentration 0.7%; anaerobic, 37°C, four hours; column 10 of Table I. The procedure: as §1
For the salivary test system, saliva was pooled from volunteers who had fasted three hours and the pH of the pooled saliva was noted. 4.95 ml of pool saliva was aseptically transferred to a series of sterile test tubes. […] of each compound were prepared and sterilized. 0.05 ml of each was aseptically added to the test tube of saliva to give a final concentration of 0.7%. The test tubes were incubated anaerobically ! at 37°C for four hours. The pH of each was then measured.
The next six columns refer to certain effects on the metabolism of the bacteria. Columns 4-8 represent measures of the activity of an enzyme (or group of enzymes) called dextran-sucrase (DSU) which is one of the principle sources of the cariogenicity of this organism. DSU converts dietary sugar into polymers which are a major ingredient of cariogenic dental plaque. Such plaque is an accumulation of these polymers, playing an essential role in caries formation and periodontal disease. […] In column 9, lactic acid production is measured. […]

For data set [5] the following is noted: cited from earlier work.
The conditions of data set [6]: humans; cited from earlier work.
Data set [7] concerns enzymes responsible for dental caries formation. Conditions: cited from earlier work.
The test system of data set [8] is dental caries. Conditions: compared with mannitol or sorbitol; cited from earlier work.
In data set [9] the test system is dental caries. The conditions noted are these: in diet, man; cited from earlier work.
For data set [10] the following is noted: cited from earlier work. This is another data set of the same source.
Data set [11] concerns dental caries. Conditions: cited from earlier work.

For `OC[C@@H](O)[C@@H](O)CO` [erythritol], the “growth characteristics: total growth (final Klett), growth rate (doubling time), acid produced (final pH)” value in data set [1] is “closely following”. Further, the “DSU mean specific activity” value in data set [2] (activity per bacterial cell, column 8 of Table I) was “the best”. The “dextran-sucrase (DSU) activity” value in data set [2] was “superior to the other substances tested”. In addition, the lactic acid production result in data set [3] is listed as “only substance which reduced lactic acid”. Besides, the “effect on the pH of natural saliva” value in data set [4] is on record as “best substance in the test”. For the same compound, the “saturated solution in water” value in [5] is listed as “about 38 % w/w”. Also, in [6], the “metabolism after oral ingestion” value is given as “not significantly metabolized”.
`OC[C@@H](O)[C@H](O)[C@@H](O)CO` [xylitol]: in data set [1], the “growth characteristics: total growth (final Klett), growth rate (doubling time), acid produced (final pH)” value is on record as “best results”. Further, the “dextran-sucrase (DSU) activity” value in [2] was “superior to the other substances tested”. For the same compound, the lactic acid production result in data set [3] is given as “superior to the other test substances”. Moreover, the “effect on the pH of natural saliva” value in data set [4] is “superior to the other test substances”. In [7], the “formation of enzymes responsible for dental caries formation” value (“formation of enzymes responsible” for short) was “retarded”. Further, the “reducing the incidence of dental caries” value in [8] is given as “appreciably more effective”. The “incidence of dental caries” value in [9] is on record as “dramatic reduction in the incidence of dental caries”. Also, the diarrhea entry in [10] (rats) is listed as “caused diarrhea”. In [11] (rats), the drinking water intake entry is reported as “increased drinking water intake” and the preventing dental caries entry is “more effective than sorbitol”.
Regarding `OC[C@@H](O)[C@@H](O)[C@H](O)[C@@H](O)CO` [sorbitol], the “formation of enzymes responsible” value in [7] is on record as “retarded”. The diarrhea result in data set [10] (rat, in vivo) is “caused diarrhea”. Also, the drinking water intake entry in [11] (rat, in vivo) is recorded as “increased drinking water intake”.
As to `OC[C@@H](O)[C@@H](O)[C@H](O)[C@H](O)CO` [mannitol], the “formation of enzymes responsible” value in data set [7] was “retarded”.
